Data taken from PMC4700268 (Frontiers in Pharmacology, 2016).
Where two headings read alike, the source gives them in different places.

Columns and labels:
hOAT1 = target: T1, hOAT1 (Homo sapiens, UniProt Q4U2R8); design: method as in Ho et al. (2000); conditions: ref Ho et al. (2000); read-out: Km in CHO cells stably expressing hOAT1; cited from earlier work
T1 sequence (Q4U2R8 1-563): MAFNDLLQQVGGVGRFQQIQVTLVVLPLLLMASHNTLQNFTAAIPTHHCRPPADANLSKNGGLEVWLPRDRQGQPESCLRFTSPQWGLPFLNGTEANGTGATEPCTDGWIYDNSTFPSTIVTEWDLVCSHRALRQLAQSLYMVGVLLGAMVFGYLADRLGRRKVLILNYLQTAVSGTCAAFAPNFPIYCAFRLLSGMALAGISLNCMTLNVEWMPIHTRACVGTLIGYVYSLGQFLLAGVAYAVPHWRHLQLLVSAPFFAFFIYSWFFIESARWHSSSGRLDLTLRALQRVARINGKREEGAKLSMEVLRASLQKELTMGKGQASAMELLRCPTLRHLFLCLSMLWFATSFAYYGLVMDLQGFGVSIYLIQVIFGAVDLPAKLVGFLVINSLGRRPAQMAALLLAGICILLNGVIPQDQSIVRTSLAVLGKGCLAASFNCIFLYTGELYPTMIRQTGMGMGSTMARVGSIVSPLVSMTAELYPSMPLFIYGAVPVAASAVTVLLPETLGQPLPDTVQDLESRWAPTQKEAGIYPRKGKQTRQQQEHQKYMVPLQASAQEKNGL

[1] = ref Cundy, 1999; Kearney et al., 2005; Delahunty et al., 2006; cited from earlier work
hCNT2 = target: T2, hCNT2 (Homo sapiens, UniProt O43868); assay: Inhibition of [3H]uridine uptake in hCNT2 transfected MDCK II cells; format: in vitro ADME; design: host or cells: MDCK II cells, transient transfection; conditions: 1 μM [3H]uridine, 0–1000 μM, 2 min, MDCK II
T2 sequence (O43868 1-658): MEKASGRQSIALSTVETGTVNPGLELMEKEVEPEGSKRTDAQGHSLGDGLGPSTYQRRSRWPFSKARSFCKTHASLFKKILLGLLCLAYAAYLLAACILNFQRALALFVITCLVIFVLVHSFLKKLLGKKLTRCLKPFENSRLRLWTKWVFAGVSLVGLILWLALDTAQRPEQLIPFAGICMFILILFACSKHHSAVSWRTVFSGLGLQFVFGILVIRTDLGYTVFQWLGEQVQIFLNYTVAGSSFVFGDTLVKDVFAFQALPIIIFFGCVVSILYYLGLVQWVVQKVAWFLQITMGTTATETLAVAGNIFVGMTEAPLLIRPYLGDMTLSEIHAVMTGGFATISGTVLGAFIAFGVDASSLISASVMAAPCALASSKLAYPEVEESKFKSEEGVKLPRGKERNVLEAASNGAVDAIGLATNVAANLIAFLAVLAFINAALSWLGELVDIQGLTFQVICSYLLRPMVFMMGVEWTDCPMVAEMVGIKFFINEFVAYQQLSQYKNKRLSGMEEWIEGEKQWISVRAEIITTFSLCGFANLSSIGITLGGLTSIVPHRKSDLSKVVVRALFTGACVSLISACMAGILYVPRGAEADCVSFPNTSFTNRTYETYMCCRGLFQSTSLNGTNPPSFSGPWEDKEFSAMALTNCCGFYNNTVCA
Method: (§1) Inhibitory transport assays were carried out in 24-well plates as described previously ([Mandikova et al., 2013]). Transport assays in HeLa cells transiently transfected with the hOAT1 expression construct were performed 48 h after transfection. Transport assays in MDCK II cells transiently transfected with hOCT2, hCNT2 or hCNT3 were performed 24 h after transfection. The cultivation medium was removed and the cells were washed with transport solution and preincubated for 10 min at 37°C. The standard radiolabeled substrate or tested radioactive antiviral substance dissolved in transport solution was added to the cells and incubated for 2 min. [^3H]PAH (1 μM) was used as a prototypical substrate for OATs, [^3H]MPP^+ (1 μM) for OCTs and [^3H]uridine (1 μM) for CNTs. […] After the designated time period, the incubation was stopped by washing the cells twice with ice-cold solution containing 137 mM NaCl and 10 mM HEPES, pH 7.4. The cells were disintegrated with 0.1 mL of Triton X 0.5% in 100 mM NaOH for 1 h.
(§2) IC50 values were calculated using non-linear regression analysis using GraphPad Prism software (version 6).

[2] = system: HeLa cells transiently transfected with hOAT1; assay: MTS cell viability assay in hOAT1 transfected HeLa cells; conditions: 24 h, hOAT1 vs empty vector transfected HeLa cells
Method: (§3) The Hela cells were plated in a 96-well plate and transfected with hOAT1 as described above. […] The controls were prepared simultaneously. After 24 h of incubation, the reagent from the kit CellTiter 96 AQueous One Solution Cell Proliferation Assay (CellTiter 96, PROMEGA, USA) was added. After 1.5 h of incubation at 37°C the absorbance was recorded at 490 nm.

hCNT3 = target: T3, hCNT3 (Homo sapiens, UniProt Q9HAS3); assay: Inhibition of [3H]uridine uptake in hCNT3 transfected MDCK II cells; format: in vitro ADME; design: host or cells: MDCK II cells, transient transfection; conditions: 1 μM [3H]uridine, 0–1000 μM, 2 min, MDCK II
T3 sequence (Q9HAS3 1-691): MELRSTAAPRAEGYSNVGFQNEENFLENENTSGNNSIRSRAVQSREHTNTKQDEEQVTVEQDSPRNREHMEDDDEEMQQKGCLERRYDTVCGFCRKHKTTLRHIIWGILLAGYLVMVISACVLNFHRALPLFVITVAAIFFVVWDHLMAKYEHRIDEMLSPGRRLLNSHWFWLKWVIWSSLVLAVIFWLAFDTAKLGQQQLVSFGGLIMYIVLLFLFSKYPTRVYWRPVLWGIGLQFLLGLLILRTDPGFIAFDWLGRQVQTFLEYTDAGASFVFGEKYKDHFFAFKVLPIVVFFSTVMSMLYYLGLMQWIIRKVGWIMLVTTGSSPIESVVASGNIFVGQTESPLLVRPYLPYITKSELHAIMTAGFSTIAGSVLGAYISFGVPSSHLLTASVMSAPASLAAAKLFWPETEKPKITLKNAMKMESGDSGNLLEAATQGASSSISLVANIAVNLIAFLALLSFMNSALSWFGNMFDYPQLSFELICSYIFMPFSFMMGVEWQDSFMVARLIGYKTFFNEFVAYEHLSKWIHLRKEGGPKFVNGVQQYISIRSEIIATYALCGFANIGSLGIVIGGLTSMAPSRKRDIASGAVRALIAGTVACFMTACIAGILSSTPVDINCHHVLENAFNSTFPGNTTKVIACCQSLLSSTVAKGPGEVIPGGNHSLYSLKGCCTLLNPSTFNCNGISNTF
Method: as §1, §2

[3] = system: HeLa cells transiently transfected with hOAT1
Method: as §3

not read [4] = substrate: C=C1[C@H](CO)[C@@H](O)C[C@@H]1n1cnc2c(=O)[nH]c(N)nc21; assay: not read; format: in vitro ADME, human; conditions: other: HeLa cells transiently transfected with hOAT1, 5 min, 37°C
not read [5] = substrate: C=C1[C@H](CO)[C@@H](O)C[C@@H]1n1cnc2c(=O)[nH]c(N)nc21; assay: not read; conditions: 5 min, 37°C

For `Nc1ncnc2c1ncn2CCOCP(=O)(O)O` [adefovir], the Km (hOAT1) is listed as 23.8 µM, the “Therapeutic plasma levels achieved in humans” value [1] is listed as 0.1 µM and the “Inhibitory effect on hCNT2” value (hCNT2) is listed as “not observed”. The “Effect of hOAT1 expression on cytotoxicity (cell viability)” value (“Effect of hOAT1 expression” for short) [2] was “significantly enhanced the cytotoxic effect” and the “Inhibitory effect on hCNT3” value (hCNT3) was “not observed”.

For `Nc1ccn(C[C@@H](CO)OCP(=O)(O)O)c(=O)n1` [cidofovir], the “Therapeutic plasma levels achieved in humans” value [1] is listed as 70 µM, the “Inhibitory effect on hCNT2” value (hCNT2) is listed as “not observed” and the “Effect of hOAT1 expression” value [2] is listed as “significantly enhanced the cytotoxic effect”. The “Inhibitory effect on hCNT3” value (hCNT3) was “not observed”.

In the case of `C[C@H](Cn1cnc2c(N)ncnc21)OCP(=O)(O)O` [tenofovir], the “Therapeutic plasma levels achieved in humans” value [1] is given as 0.5 µM, the “Inhibitory effect on hCNT2” value (hCNT2) is given as “not observed” and the “Inhibitory effect on hCNT3” value (hCNT3) is given as “not observed”. For the same molecule, the “Effect of hOAT1 expression” value [3] was “significantly enhanced the cytotoxic effect”.

B1: hOAT1 (Homo sapiens) (protein)
chain: MAFNDLLQQVGGVGRFQQIQVTLVVLPLLLMASHNTLQNFTAAIPTHHCRPPADANLSKNGGLEVWLPRDRQGQPESCLRFTSPQWGLPFLNGTEANGTGATEPCTDGWIYDNSTFPSTIVTEWDLVCSHRALRQLAQSLYMVGVLLGAMVFGYLADRLGRRKVLILNYLQTAVSGTCAAFAPNFPIYCAFRLLSGMALAGISLNCMTLNVEWMPIHTRACVGTLIGYVYSLGQFLLAGVAYAVPHWRHLQLLVSAPFFAFFIYSWFFIESARWHSSSGRLDLTLRALQRVARINGKREEGAKLSMEVLRASLQKELTMGKGQASAMELLRCPTLRHLFLCLSMLWFATSFAYYGLVMDLQGFGVSIYLIQVIFGAVDLPAKLVGFLVINSLGRRPAQMAALLLAGICILLNGVIPQDQSIVRTSLAVLGKGCLAASFNCIFLYTGELYPTMIRQTGMGMGSTMARVGSIVSPLVSMTAELYPSMPLFIYGAVPVAASAVTVLLPETLGQPLPDTVQDLESRWAPTQKEAGIYPRKGKQTRQQQEHQKYMVPLQASAQEKNGL
notes: host or cells: HeLa cells, transient transfection
Work on B1 yielded a Km (not read [4]) of 316.5 µM.

B2: hCNT2 (Homo sapiens) (protein)
chain: MEKASGRQSIALSTVETGTVNPGLELMEKEVEPEGSKRTDAQGHSLGDGLGPSTYQRRSRWPFSKARSFCKTHASLFKKILLGLLCLAYAAYLLAACILNFQRALALFVITCLVIFVLVHSFLKKLLGKKLTRCLKPFENSRLRLWTKWVFAGVSLVGLILWLALDTAQRPEQLIPFAGICMFILILFACSKHHSAVSWRTVFSGLGLQFVFGILVIRTDLGYTVFQWLGEQVQIFLNYTVAGSSFVFGDTLVKDVFAFQALPIIIFFGCVVSILYYLGLVQWVVQKVAWFLQITMGTTATETLAVAGNIFVGMTEAPLLIRPYLGDMTLSEIHAVMTGGFATISGTVLGAFIAFGVDASSLISASVMAAPCALASSKLAYPEVEESKFKSEEGVKLPRGKERNVLEAASNGAVDAIGLATNVAANLIAFLAVLAFINAALSWLGELVDIQGLTFQVICSYLLRPMVFMMGVEWTDCPMVAEMVGIKFFINEFVAYQQLSQYKNKRLSGMEEWIEGEKQWISVRAEIITTFSLCGFANLSSIGITLGGLTSIVPHRKSDLSKVVVRALFTGACVSLISACMAGILYVPRGAEADCVSFPNTSFTNRTYETYMCCRGLFQSTSLNGTNPPSFSGPWEDKEFSAMALTNCCGFYNNTVCA
With B2 the Km (not read [5]; other: hCNT2 transfected cells) was 1522.00 µM.

B3: hCNT3 (Homo sapiens) (protein)
chain: MELRSTAAPRAEGYSNVGFQNEENFLENENTSGNNSIRSRAVQSREHTNTKQDEEQVTVEQDSPRNREHMEDDDEEMQQKGCLERRYDTVCGFCRKHKTTLRHIIWGILLAGYLVMVISACVLNFHRALPLFVITVAAIFFVVWDHLMAKYEHRIDEMLSPGRRLLNSHWFWLKWVIWSSLVLAVIFWLAFDTAKLGQQQLVSFGGLIMYIVLLFLFSKYPTRVYWRPVLWGIGLQFLLGLLILRTDPGFIAFDWLGRQVQTFLEYTDAGASFVFGEKYKDHFFAFKVLPIVVFFSTVMSMLYYLGLMQWIIRKVGWIMLVTTGSSPIESVVASGNIFVGQTESPLLVRPYLPYITKSELHAIMTAGFSTIAGSVLGAYISFGVPSSHLLTASVMSAPASLAAAKLFWPETEKPKITLKNAMKMESGDSGNLLEAATQGASSSISLVANIAVNLIAFLALLSFMNSALSWFGNMFDYPQLSFELICSYIFMPFSFMMGVEWQDSFMVARLIGYKTFFNEFVAYEHLSKWIHLRKEGGPKFVNGVQQYISIRSEIIATYALCGFANIGSLGIVIGGLTSMAPSRKRDIASGAVRALIAGTVACFMTACIAGILSSTPVDINCHHVLENAFNSTFPGNTTKVIACCQSLLSSTVAKGPGEVIPGGNHSLYSLKGCCTLLNPSTFNCNGISNTF
For B3, the Km (not read [5]; other: hCNT3 transfected cells) was 99.02 µM.
